We go through 10 compounds from patent publication US11166942B2 (PRAXIS BIOTECH LLC, priority 2018, dated 2021).

This assay deals with ATF4. The assay is described as follows: ATF4 expression inhibition assay (ATF4 5'UTR luciferase reporter, Tg-stressed HEK293T cells). Particulars: for inhibition at 0.1 µM: read-out: % ATF4 inhibition at 100 nM; for IC50: read-out: ATF4 inhbition IC50; for inhibition at 1 µM: read-out: % ATF4 inhibition at 1 μM. Format: cell-based, human. The method, then: The ATF4 reporter was prepared by fusing the human full length 5′UTR of ATF4 (NCBI Accession No. BC022088.2) upstream of the firefly luciferase coding sequence lacking the initiator methionine. The fused sequence was cloned into pLenti-EF1a-C-Myc-DDK-IRES-Puro cloning vector (Origen #PS100085) using standard methods. Virus production was carried out by using Lenti-X™ Packaging Single Shots Protocol (Clonetech #631276). Viral particles were used to transduce HEK293T cells (ATCC #CRL-3216, ATCC Manassas, Va.), which were subsequently selected with puromycin to generate stable cell line. Cells were maintained at 37° C. and 5% CO2 in DMEM-F12 (Hyclone #SH30023.02) supplemented with 10% heat-inactivated fetal bovine serum (Gibco #16000-044), 2 mM L-glutamine (Gibco #25030-081), 100 U/ml penicillin, and 100 μg/ml streptomycin (Gibco #15140-122).
HEK293T cells carrying the ATF4 luciferase reporter were plated on 96-well plates (Nunc) at 10,000 cells per well. Cells were treated two days after seeding with 100 nM thapsigargin (Tg) (Sigma-Aldrich #T9033) in the presence of 100 nM or 1 μM. For the assessment of the half-maximal inhibitory concentration (IC50) for selected compounds, dose-response assays were performed. Compounds were serially diluted using DMSO ranging from 0.1 nM to 1 μM. Cells without treatment or cells treated with Tg alone were used as controls. Assay plates containing cells were incubated for 3 hours at 37° C.
Luciferase reactions were performed using Luciferase Assay System (Promega #E1501) as specified by the manufacturer. Luminescence was read with an integration time of 1 s and a gain of 110 using a Cytation-5 multi-mode microplate reader (BioTek). Relative luminescence units were normalized to Tg treatment (0% inhibition) and untreated cells (100% inhibition) and the percentage of ATF4 inhibition was calculated.
Percentages of ATF4 inhibition after induction with Tg in the presence of 100 nM or 1 μM of certain test compounds are shown in Table 2. Also shown in Table 2 is the calculated IC50 for certain test compounds. […] Accordingly, inhibition of ATF4 expression as a result of the test compound indicates suppression of the ISR pathway.
(A reporter such as luciferase makes a cellular process visible.)

[1] abbreviates: Homo sapiens, HEK-293T, 3 h, 100 nM test compound, 100 nM thapsigargin, 3 hours, HEK293T ATF4 luciferase reporter.
Setting [2] is: Homo sapiens, HEK-293T, 3 h, 100 nM thapsigargin, 3 hours, HEK293T ATF4 luciferase reporter.
Where [3] appears, read: Homo sapiens, HEK-293T, 3 h, 1 μM test compound, 100 nM thapsigargin, 3 hours, HEK293T ATF4 luciferase reporter.

Where two headings read alike, the source gives them in different places.

As usually defined, the inhibition is the share of the control response that was lost under treatment. As a reminder, the IC50 is the midpoint of a concentration-inhibition curve. In the case of `O=C(COc1ccc(Cl)c(F)c1)NC1CCN(NCC(O)COc2ccc(Cl)c(F)c2)CC1` (centres unmarked) [Compound 7, 2-(4-chloro-3-fluorophenoxy)-N-(1-((3-(4-chloro-3-fluorophenoxy)-2-hydroxypropyl)amino)piperidin-4-yl)acetamide], the inhibition at 0.1 µM under setting [1] was found to be 16.1%. In addition, the IC50 under setting [2] was above 1000 nM. In addition, the inhibition at 1 µM under setting [3] was 13.9%.

`O=C(COc1ccc(Cl)c(F)c1)NC1CCN(NC(=O)c2nc3cc(Cl)ccc3s2)CC1` [Compound 9, 5-chloro-N-(4-(2-(4-chloro-3-fluorophenoxy)acetamido)piperidin-1-yl)benzo[d]thiazole-2-carboxamide]: the inhibition at 0.1 µM under setting [1] is 77.1%. Under setting [2], the IC50 is below 100 nM. Besides, the inhibition at 1 µM under setting [3] worked out at 86.8%.

In the case of `O=C(COc1ccc(Cl)c(F)c1)NN1CCC(NC(=O)c2nc3cc(Cl)ccc3s2)CC1` [Compound 10, 5-chloro-N-(1-(2-(4-chloro-3-fluorophenoxy)acetamido)piperidin-4-yl)benzo[d]thiazole-2-carboxamide], under setting [1], the inhibition at 0.1 µM was 68.2%. Besides, under setting [2], the IC50 was below 100 nM. Moreover, under setting [3], the inhibition at 1 µM was determined as 87.2%.

In the case of `O=C(COc1ccc(Cl)c(F)c1)NC1CCN(NC(=O)C2Cc3cc(Cl)ccc3O2)CC1` (centres unmarked) [Compound 11, 5-chloro-N-(4-(2-(4-chloro-3-fluorophenoxy)acetamido)piperidin-1-yl)-2,3-dihydrobenzofuran-2-carboxamide], under setting [1], the inhibition at 0.1 µM stood at 67.8%. In addition, under setting [2], the IC50 is below 100 nM. For the same compound, under setting [3], the inhibition at 1 µM stood at 90.5%.

`O=C(COc1ccc(Cl)c(F)c1)NN1CCC(NC(=O)C2Cc3cc(Cl)ccc3O2)CC1` (centres unmarked) [Compound 12, 5-chloro-N-(1-(2-(4-chloro-3-fluorophenoxy)acetamido)piperidin-4-yl)-2,3-dihydrobenzofuran-2-carboxamide]: the inhibition at 0.1 µM under setting [1] was 69.4%. The IC50 under setting [2] was below 100 nM. The inhibition at 1 µM under setting [3] is 88.5%.

Turning to `O=C(NN1CCN(CC(O)COc2ccc(Cl)c(F)c2)CC1)C1Cc2cc(Cl)ccc2O1` (centres unmarked) [Compound 13, 5-chloro-N-(4-(3-(4-chloro-3-fluorophenoxy)-2-hydroxypropyl)piperazin-1-yl)-2,3-dihydrobenzofuran-2-carboxamide], the “% ATF4 inhibition at 100 nM” value (100 nM test compound, 100 nM thapsigargin, 3 hours, HEK293T ATF4 luciferase reporter) was 60.7%. Also, the IC50 (100 nM thapsigargin, 3 hours, HEK293T ATF4 luciferase reporter) was below 100 nM. Also, the “% ATF4 inhibition at 1 μM” value (1 μM test compound, 100 nM thapsigargin, 3 hours, HEK293T ATF4 luciferase reporter) is 86.7%.

On to `O=C(NC1CCN(NCC(O)COc2ccc(Cl)c(F)c2)CC1)c1ccc2cc(Cl)ccc2n1` (centres unmarked) [Compound 25, 6-chloro-N-(1-((3-(4-chloro-3-fluorophenoxy)-2-hydroxypropyl)amino)piperidin-4-yl)quinoline-2-carboxamide], for which the inhibition at 0.1 µM under setting [1] worked out at 8.1%. Further, under setting [2], the IC50 was above 1000 nM. In addition, the inhibition at 1 µM under setting [3] is 8.5%.

With `O=C(NC1CCN(NCC(O)COc2ccc(Cl)c(F)c2)CC1)c1cc2cc(Cl)ccc2o1` (centres unmarked) [Compound 26, 5-chloro-N-(1-((3-(4-chloro-3-fluorophenoxy)-2-hydroxypropyl)amino)piperidin-4-yl)benzofuran-2-carboxamide], under setting [1], the inhibition at 0.1 µM came out at 37.5%. Further, under setting [3], the inhibition at 1 µM is 49.4%.

Take `O=C(COc1ccc(C(F)(F)F)cc1)NC1CCN(NC(=O)COc2ccc(C(F)(F)F)cc2)CC1` [Compound 35, N,N′-(piperidine-1,4-diyl)bis(2-(4-(trifluoromethyl)phenoxy)acetamide)]: the inhibition at 0.1 µM under setting [1] was 92.1%. Further, under setting [2], the IC50 was below 100 nM. The inhibition at 1 µM under setting [3] came out at 91.6%.

For the compound `O=C(COc1ccc(Cl)c([N+](=O)[O-])c1)NC1CCN(NC(=O)COc2ccc(Cl)c(F)c2)CC1` [Compound 39, 2-(4-chloro-3-fluorophenoxy)-N-(4-(2-(4-chloro-3-nitrophenoxy)acetamido)piperidin-1-yl)acetamide], for the setting “Homo sapiens, HEK-293T, 3 h”, the inhibition at 0.1 µM was 91%, the inhibition at 1 µM was 91.5% and the IC50 was below 100 nM.
